According to patent US20250057930A1, “ANAPLASTIC LYMPHOMA KINASE (ALK) CANCER VACCINES AND METHODS OF USE THEREOF” (The Children's Medical Center Corporation, priority 2022, published 2025):
Ends that are not written are not given here.

Tests used:
[1] = test system: ALK-specific CD8+ T cells; experiment: Vaccination of HLA B*07:02 transgenic mice, IFN-γ ELISPOT of splenocytes; type: in vivo, mouse; details: short and long peptide groups pooled, of 12 mice
From the text: Transgenic mice expressing the human HLA B*07:02 were vaccinated with different peptides containing the core epitopes […] (SEQ ID NO: 4) or […] (SEQ ID NO: 3): […] (SEQ ID NO: 4) (IVRshort), […] (SEQ ID NO: 1) (IVRlong), […] (SEQ ID NO: 3) (RPRshort), […] (SEQ ID NO: 2) (RPRlong). ALK-specific CD8+ T cells responses were detected in 12/12 (100%) mice vaccinated with either the IVRshort peptide or the IVRlong peptide and in 6/12 (50%) of mice vaccinated with either the PRPshort peptide or the RPRlong (FIG. 7D). Finally, ALK-specific CD8+ T cells responses were also detected in peripheral blood mononuclear cells (PBMCs) from 3/6 (50%) ALK+ NSCLC patients when stimulated with the […] (SEQ ID NO: 4) peptide but not with the […] (SEQ ID NO: 3) peptide (FIGS. 7E and 16B; Tables 6-7). Overall, four immunogenic ALK peptides in the context of the HLA A*02:01 and B*07:02 alleles were identified by mass spectrometry that can pave the way toward the design of a human ALK vaccine.
The interferon-γ release enzyme-linked immune absorbent spot (ELISPOT) assay was performed using a commercial kit (Mouse IFN-γ ELISPOT, Mabtech, Stockholm, Sweden) according to the manufacturer's instructions. Briefly, the ELISPOT plate was prepared in sterile conditions and washed with sterile PBS (200 μL/well) for 5 times. Consecutively, the plate was conditioned with fresh DMEM medium (200 μL/well) contained 10% of the same fetal bovine serum used for the splenocytes suspension and incubated for 30 minutes at room temperature. After incubation, the medium was discarded and 2.5×10^5 splenocytes were plated in each well together with the appropriate stimuli. The plate was incubated over/night at 37° C. in humidified conditions with 5% C02. The day after, cells were discarded, and the plate was washed 5 times with PBS. Biotinylated detection anti-IFN-γ mAb (1 μg/mL) was added into the wells, followed by 2 hours of incubation at room temperature. […] All plates were evaluated by a computer assisted ELISPOT reader (CTL Immunospot analyzer, OH, USA).

[2] = test system: splenocytes isolated from mice vaccinated with ALK-DNA vaccine; experiment: IFN-γ ELISPOT screening of synthetic long peptides on splenocytes of ALK-DNA vaccinated mice; type: cell-based, mouse; details: ALK-DNA vaccine group, average ±SEM
Protocol: Despite the known immunogenicity of the ALK protein, the data imply that ALK^+ mouse lung tumors induce an immune response insufficient to be activated by immune checkpoint inhibitor (ICI) treatment. Therefore, it was decided to directly investigate anti-ALK immune responses during ICI treatment by identifying the specific ALK peptides that induce T-cell mediated immune responses in mouse models. To identify the ALK-specific T-cell epitopes, an in vitro peptide screening was performed. A set of 21 overlapping synthetic long peptides (SLP), that encompassed the ALK cytoplasmic domain (FIG. 9A; Table 1), was incubated with splenocytes isolated from mice vaccinated with a vector encoding most of the ALK cytoplasmic domain (ALK-DNA vaccine) as previously described in Chiarle R, Martinengo C, Mastini C, Ambrogio C, D'Escamard V, Fori G, et al. The anaplastic lymphoma kinase is an effective oncoantigen for lymphoma vaccination.
The interferon-γ release enzyme-linked immune absorbent spot (ELISPOT) assay was performed using a commercial kit (Mouse IFN-γ ELISPOT, Mabtech, Stockholm, Sweden) according to the manufacturer's instructions. Briefly, the ELISPOT plate was prepared in sterile conditions and washed with sterile PBS (200 μL/well) for 5 times. […] All plates were evaluated by a computer assisted ELISPOT reader (CTL Immunospot analyzer, OH, USA).

[3] = Toxicity of the ALK vaccine in HLA-A*02:01 and HLA-B*07:02 transgenic mice; type: in vivo, mouse; details: for toxicity in vaccinated mice: HLA-A*02:01 (AMLDLLHVA) and HLA-B*07:02 (IVRCIGVSL) transgenic mice, CDN adjuvant; for CD8^+ T cells in the hypothalamus region / H&E and pan-HLA immunohistochemistry staining of the hypothalamus region / weight gain: mouse, in vivo
From the text: Transgenic mice (HLA-A*02:01 and HLA-1B*07:02) were vaccinated as shown in the schematic in FIG. 18A with either […] (SEQ ID NO: 7) or […] (SEQ ID NO: 4) peptides, respectively, and cyclic dinucleotides (CDN) adjuvant. Weight measurements were taken at discrete time points. Next, splenocytes were isolated and assayed and brain tissue was sectioned and imaged (FIG. 18C).

[4] = test system: CD8^+ T cells from NSCLC patients; experiment: IFN-γ ELISPOT of patient CD8^+ T cells expanded with ALK peptides; type: cell-based, human
Protocol: Non-small cell lung cancer (NSCLC) patients, at the Dana-Farber Cancer Institute, consented to an institutional review board (IRB)-approved correlative research protocol that allowed for review of medical records and sample collection. Lung cancer mutation status was determined using standard CLIA-certified clinical assays in the Center for Advanced Molecular Diagnostics at Brigham and Women's Hospital. For each patient, 10 mL of whole blood was collected into K3-EDTA tubes, and peripheral blood mononuclear cells (PBMCs) (peripheral blood mononuclear cells) were isolated with Ficoll-Paque Plus density separation (GE Healthcare), and consequently frozen until use.
Frozen PBMCs from patients with NSCLC were thawed, resuspended in cold RPMI containing 3% of human AB heat-inactivated serum (Sigma Aldrich), and cultured in a T-175 culture flask for 50 min. at 37° C. in 5% C02 to induce the attachment of CD14^+ monocytes to the plastic. The remaining floating PBMCs were removed with gentle washes of PBS and warm media. Monocytes were then cultured in RPMI containing 3% of human AB heat-inactivated serum, 2% Penicillin/Streptomycin, 1% Glutamine, and 25 nM HEPES with GM-CSF (120 ng/mL, Preprotech) and IL-4 (70 ng/mL, Preprotech). Fresh GM_CSF and IL-4 were added on days 3 and 5. On day 6, Poly I:C (30 μg/mL, Sigma Aldrich) was added for 24 hours to induce DCs maturation.
B cells were expanded using the CD40 system (68,69). Briefly, NIH-3T3-CD40L cells were irradiated (9600 rads) and plated in a 6 well plate (400.000 cells/well) without Gentamycin. The following day, 8×10^6 PBMCs were resuspended in 4 mL of IMDM (Glutamine, Hepes, Gibco) containing 10% human AB serum heat-inactivated (Sigma Aldrich), Transferrin (50 μg/ml, Lonza), Insulin (5 μg/ml, BioXtra), Cyclosporine A (5.5×10^−7M, Sigma Aldrich), IL-4 (2 ng/ml, Preprotech) and Gentamycin (15 μg/ml, Gibco), and co-cultured with the irradiated NIH-3T3-CD40L for 5 days. PBMCs were then counted and cultured at the same concentration together with newly irradiated NIH-3T3-CD40L for 3 more days. After 12 days 95% of the cells were CD19^+ and could be expanded similarly every 3-4 days at a concentration of 10^6/mL. B cells were always used after 15 days of culture.
CD8^+ T cells were purified using magnetic beads (CD8^+ T cell isolation Kit, Miltenyi) and co-cultured with DCs (20:1; around 10^6 CD8^+ T cells:50.000 DCs) in AIM V media (Gibco) with 5% human AB heat-inactivated serum (Sigma Aldrich), 20 units/mL IL-2 (Preprotech) and 10 ng/mL IL-7 (Preprotech). Before co-culture, DCs were pulsed with the 10 μg/mL of the desired peptide in AIM V media without serum at 37° C. in 5% CO2. Fresh IL-2 and IL-7 were added every 3-4 days. After 7 days, 3-4 million PBMCs CD8^+ T cells were co-cultured with peptide-pulsed DCs and cytokines (20-40:1 ratio). 3rd and 4th stimulation stimulations were done using 4-5 million CD8^+ T cells and peptide-pulsed irradiated B cells (ratio 4:1, 3000 rads) and fresh IL2 and IL7 (days 14 and 21). CD8^+ T-cell responses were then evaluated in an IFN-γ-ELISPOT assay (Mabtech) using peptide-pulsed B cells (1:1 ratio) as target cells. CD8^+ T cells were purified the day before the ELISPOT assay and rested overnight in media without cytokines. The ELISPOT was performed with FBS heat inactivated as recommended by the manufacturer. When the human material was limited, PBMCs or B0 cells were used in the first round of stimulation.

[5] = test system: Ad-EA mice (mEml4-Alk rearranged lung tumor); experiment: Lung tumor volume by MRI and survival in Ad-EA mice; type: in vivo, mouse; details: crizotinib 40 mg/kg or lorlatinib 2 mg/kg, MRI
From the text: EML4-ALK transgenic (Tg) mice, which express the human EML4-ALK (E13;A20, human variant 1) driven by the SP-C promoter (henceforth referred as hEML4-ALK Tg mice), and BALB/c mice infected intratracheally with adenovirus carrying the CRISPR/Cas9 system to induce in vivo the Eml4-Alk rearrangement (E14;A20, mouse variant 1) (henceforth referred as Ad-EA mice). […] In these models, magnetic resonance imaging (MRI) (FIG. 1B) allowed precise cohort stratification and tumor follow-up.
Anatomical T2-weighted coronal images were acquired with a respiratory-triggered multislice fast spin echo RARE sequence (TR=4 s, TE=4.5 ms, Rare Factor (RF)=16, FOV=30 mm^2, Matrix=256×256, slices=16-20, slice thickness=1 mm, 2 averages, providing an in-plane spatial resolution of 117 μm) with a 7T MRI (Bruker Advance III, Ettlingen, Germany) scanner equipped with a quadrature 1H coil. Animals were anesthetized by intraperitoneal injection of a combination of ROMPUN® (Bayer, 5 mg/kg) and ZOLETIL 100® (Laboratoires Virbac, 20 mg/kg); breathing was monitored during acquisition of the MR images with a respiratory sensor (SA Instruments, Inc.). Tumor volumes and numbers of masses calculations were performed by manual segmentation (slice by slice contouring) with ITK-SNAP software (www.itksnap.org).
Syngeneic mice models transplanted with tumor cells were treated intraperitoneally with 200 μg of anti-PD-1 and/or anti-CTLA-4 (clone 9D9, Bioxcell), on days 3, 6, and 9 post-tumor transplantation (3 injections/per mouse).

[6] = test system: ALK-rearranged (ALK^+) NSCLC; details: first-line treatment; cited from earlier work

With FNHQNIVRCIGVSL [IVRlong] the “mice with ALK-specific CD8+ T cells responses detected” value [1] was 100%.
With “GYQQQGLPLEAATAPGAGHYEDTILKSKNSMNQPGP [SLP21]” the “number of IFN-γ-spots” value [2] was “Weaker responses”.
With AMLDLLHVA the “toxicity in vaccinated mice” value [3] was “no detectable toxicity”, the “CD8^+ T cells in the hypothalamus region” value [3] was “Not a significant amount” and the “H&E and pan-HLA immunohistochemistry staining of the hypothalamus region” value [3] was “healthy tissue”. For the same molecule, the weight gain [3] was “the same as the control mice”.
For RPRPSQPSSL, the “mice with ALK-specific CD8+ T cells responses detected” value [1] was 50%, the “Average Spots Forming Units (2 wells)/20 000 CD8^+ T cells” value (“Average Spots Forming Units” for short) ([4]; Patient 1 (ALK), IVRCIGVSL expanded) was 5.5 Spots Forming Units/20 000 CD8 and the “Average Spots Forming Units” value ([4]; Patient 1 (ALK), RPRPSQPSSL expanded) was 4.5 Spots Forming Units/20 000 CD8. The “Average Spots Forming Units” value ([4]; Patient 2 (ALK), IVRCIGVSL expanded) was 27.5 Spots Forming Units/20 000 CD8, the “Average Spots Forming Units” value ([4]; Patient 2 (ALK), RPRPSQPSSL expanded) was 0 Spots Forming Units/20 000 CD8 and the “Average Spots Forming Units” value ([4]; Patient 3 (ALK), IVRCIGVSL expanded) was 6.5 Spots Forming Units/20 000 CD8. The “Average Spots Forming Units” value ([4]; Patient 3 (ALK), RPRPSQPSSL expanded) was 3 Spots Forming Units/20 000 CD8, the “Average Spots Forming Units” value ([4]; Patient 4 (ALK), RPRPSQPSSL expanded) was 2 Spots Forming Units/20 000 CD8 and the “Average Spots Forming Units” value ([4]; Patient 5 (KRASG12V), RPRPSQPSSL expanded) was 1 Spots Forming Units/20 000 CD8. The “Average Spots Forming Units” value ([4]; Patient 6 (EGFR del exon19), IVRCIGVSL expanded) was 1.5 Spots Forming Units/20 000 CD8, the “Average Spots Forming Units” value ([4]; Patient 6 (EGFR del exon19), RPRPSQPSSL expanded) was 10 Spots Forming Units/20 000 CD8 and the “Average Spots Forming Units” value ([4]; Patient 7 (KRASG12D), IVRCIGVSL expanded) was 1 Spots Forming Units/20 000 CD8. For the same molecule, the “Average Spots Forming Units” value ([4]; Patient 7 (KRASG12D), RPRPSQPSSL expanded) was 3 Spots Forming Units/20 000 CD8, the “Average Spots Forming Units” value ([4]; Patient 8 (EGFR del exon19), IVRCIGVSL expanded) was 2 Spots Forming Units/20 000 CD8 and the “Average Spots Forming Units” value ([4]; Patient 8 (EGFR del exon19), RPRPSQPSSL expanded) was 10 Spots Forming Units/20 000 CD8.
With GGDLKSFLRETRPRPSQPSSLAM [RPRlong] the “mice with ALK-specific CD8+ T cells responses detected” value [1] was 50%.
For “LTANMKEVPLFRLRHFPCGNVNYGYQQQGLPLEAAT [SLP20]”, the “number of IFN-γ-spots” value [2] was “Weaker responses”.
In the case of C[C@@H](Oc1cc(-c2cnn(C3CCNCC3)c2)cnc1N)c1c(Cl)ccc(F)c1Cl [crizotinib], the “tumor response at the end of treatment” value [5] is reported as “stabilized tumors”.
For COc1cc(N2CCC(N3CCN(C)CC3)CC2)ccc1Nc1ncc(Cl)c(Nc2ccccc2P(C)(C)=O)n1 [brigatinib], the “time to disease progression in most patients” value [6] is listed as “three”.
With IVRCIGVSL the “toxicity in vaccinated mice” value [3] was “no detectable toxicity”, the “CD8^+ T cells in the hypothalamus region” value [3] was “Not a significant amount” and the “H&E and pan-HLA immunohistochemistry staining of the hypothalamus region” value [3] was “healthy tissue”. The weight gain [3] was “the same as the control mice”.
